In patent US9220680B2, “Compositions and methods for localized drug delivery through mammary papillae” (South Dakota State University, priority 2012, dated 2015):
Several values for one entry are separate records, joined by “and”; a condition that tells them apart may be missing. Equal entries are not always repeated.

Tests used:
[1] = Permeation across human breast skin (Experiments 16-18); format: in vitro ADME
Description: Mammary papillae and skin tissues were thawed. Keratin plugs were removed from the mammary papilla tissues using swabs with ethanol. […] The drug solutions were spiked with radioactive substances. […] Receptor medium was PBS with 7.4 pH. […] Results may be seen in FIG. 41 and Table 20.
Mammary papillae and skin tissues were thawed. Keratin plugs were removed from the mammary papilla tissues using swabs with ethanol. […] The drug solutions were spiked with radioactive substances. […] Receptor medium was PBS with 7.4 pH. […] Results may be seen in FIG. 42 and Table 22. […]

[2] = In vitro penetration and permeation via excised porcine mammary papilla, Franz diffusion cell (Example 1); format: in vitro ADME
Method: Drug penetration and permeation via mammary papillae was performed in a Franz diffusion cell using excised porcine mammary papilla. […] The transport studies were performed at time points for 6 and 48 hours.
In a separate study to evaluate the drug retention and disposition, the treatment was removed after 6 hours and the study was continued until the 48 hour mark. Samples were withdrawn from the receptor compartment at different time points. At the end of study, the mammary papilla was cut to 2 mm thick cylindrical sections from the top to the base of the tissue and was digested using a tissue solubilizer. The drug concentrations were determined by liquid scintillation counting.
Methods for the preparation of porcine mammary papilla. Freshly excised strips of porcine mammary papilla (6-7 months old animals) were washed with deionized water followed by removal of subcutaneous fatty tissue using a scalpel. Keeping the mammary papilla in the center, 3 cm×3 cm sized specimens of the tissue were excised, subcutaneous fat tissue was removed, and the tissue was frozen at −20° C. until used for the drug penetration and permeation studies.
Breast tissue was mounted between the two compartments of a vertical Franz diffusion cell (FDC) with breast tissue sandwiched between donor and receptor compartments. A mammary papilla was set in upright position inside the donor compartment of Franz diffusion cell. […] Samples were withdrawn from the receptor at different time points for 48 hours to determine drug concentration by radioactive count. At the end of 48 hours, tissue samples were taken for drug content determination. […]
In a second study, the mammary papillae in Franz diffusion cells were treated with the drugs for 48 hours and the permeation was followed through 48 hours. This analysis provided information regarding any saturation from drug treatment for extended periods of time. […]
Extraction of drugs from the mammary papilla. At the end of permeation study, the mammary papilla was removed from Franz diffusion cell and thoroughly washed with deionized water and blotted dried. Approximately 2 mm thick sections of the tissue were taken using a scalpel. These sections were homogenized, the drug was extracted, and the drug concentration was determined by radioactive counts.

[3] = Transmammary permeation across porcine mammary papilla with and without removal of the keratin plug (Experiments 7-10); format: in vitro ADME
Description: Keratin plug was removed from human and porcine mammary papilla using an alcoholic cotton swab. The swab was gently rubbed on the surface of the mammary papilla. The mammary papilla was observed under the microscope to confirm the removal of the plug from the surface and to confirm that epidermis of the mammary papilla was not damaged during this procedure.
The drug solutions were spiked with radioactive substances. […] Receptor medium was PBS with 7.4 pH.
(§1) Mammary papillae tissues were thawed. Keratin plugs were removed from the mammary papilla tissues using swabs with ethanol. […] The drug solutions were spiked with radioactive substances. […] Receptor medium was PBS with 7.4 pH.
as §1
Mammary papillae tissues were thawed. Keratin plugs were removed from the mammary papilla tissues using swabs with ethanol. […] The drug solutions were spike with radioactive substances. […] Receptor medium was PBS with 7.4 pH.

[4] = Transmammary permeation across human mammary papilla with and without removal of the keratin plug (Experiments 12-18); format: in vitro ADME; details: for lag time / cumulative amount permeated / Drug retention in tissue / Flux: value (SEM); for cumulative amount permeated: 48 hours; for Drug retention in tissue: end of 48 hours; for Increase in permeation across the tissues upon removal of the keratin plugs: human mammary papilla
Description: Mammary papillae tissues were thawed. […] The drug solutions were spiked with radioactive substances. […] Receptor medium was PBS with 7.4 pH. […] Results may be seen in FIG. 37 and Table 13.
Mammary papillae tissues were thawed. […] The drug solutions were spiked with radioactive substances. […] Receptor medium was PBS with 7.4 pH. […] Results may be seen in FIG. 38 and Table 15.
Mammary papillae tissues were thawed. […] The drug solutions were spiked with radioactive substances. […] Receptor medium was PBS with 7.4 pH. […] Results may be seen in FIG. 39 and Table 17.
Mammary papillae tissues were thawed. […] The drug solutions were spiked with radioactive substances. […] Receptor medium was PBS with 7.4 pH. […] Results may be seen in FIG. 40.
Mammary papillae and skin tissues were thawed. […] The drug solutions were spiked with radioactive substances. […] Receptor medium was PBS with 7.4 pH. […] Results may be seen in FIG. 41 and Table 20.
Mammary papillae and skin tissues were thawed. […] The drug solutions were spiked with radioactive substances. […] Receptor medium was PBS with 7.4 pH. […] Results may be seen in FIG. 42 and Table 22.
Mammary papillae tissues were thawed. […] The drug solutions were spiked with radioactive substances. […] Receptor medium was PBS with 7.4 pH. […] Results may be seen in FIG. 43 and Table 24.

[5] = cited from earlier work
[6] = Dye penetration study of mammary papilla, confocal and fluorescence microscopy; format: in vitro ADME, porcine; details: 12 hours treatment; 2 mm section from middle of papilla; confocal laser scanning microscopy
Method: For dye penetration studies, 10 mM of the dye sulforhodamine B (SRB) in 1:1 of ethanol:phosphate buffer and 0.32 mM of Nile Red (NR) in propylene glycol were applied on the mammary papillae for 12 hours. At the end of the study, the tissue was washed, cut into 2 mm thick sections as described earlier and placed on a glass slide for confocal microscopy study. Confocal images of mammary papilla were taken from approximately […] below the surface of the mammary papilla.
Mammary papillae were treated with each dye for 12 hours. Then, starting from tip, 2 mm thick sections of papillae were taken (FIG. 8). Section B was taken from middle of mammary papilla and studied with confocal laser scanning microscopy. From this 2 mm thick section, xy dimensional images were taken at different depths starting from 0 to 500 μm. Because xy views are taken at different depths (the dimension z), these are xyz images. The upper image is an xyz view after treatment with hydrophilic dye SRB. […] The xz views of the mammary papillae were also analyzed.
Fluorescence Microscopy. To verify the confocal data, cryo-sectioning of mammary papillae was performed after 12 hours treatment with the dyes. […] Sections from various different depths of the papilla and studied by fluorescence microscopy. […]

[7] = excised porcine mammary papilla, saturated solution in ethanol:water (50:50), 48 h, mean ± SEM, n=3
[8] = porcine mammary papilla, end of 48 h, mean ± SEM, n=3
[9] = EST 15 mg/ml, human mammary papilla with keratin plug removal
[10] = EST 15 mg/ml, human mammary papilla without keratin plug removal
[11] = dextran 10 mg/ml, human mammary papilla with keratin plug removal, *Values multiplied by 1000
[12] = dextran 10 mg/ml, human mammary papilla without keratin plug removal, *Values multiplied by 1000
[13] = porcine mammary papilla after keratin plug removal, 48 hours, n=4
[14] = porcine mammary papilla after keratin plug removal, end of 48 hours
[15] = porcine mammary papilla after keratin plug removal, end of 48 hours, n=4

C[C@]12CC[C@@H]3c4ccc(O)cc4CC[C@H]3[C@@H]1CC[C@@H]2O [EST, estradiol]
lag time ([1]; EST 15 mg/ml in 50:50 ethanol:water, human breast skin, value (SEM)): 0.56 (0.22) hours | cumulative amount permeated ([1]; EST 15 mg/ml, human breast skin, 48 hours, value (SEM)): 2.10 (0.16) μmole | Drug retention in tissue ([1]; EST 15 mg/ml, human breast skin, end of 48 hours, value (SEM)): 2.94 (0.30) umole/g of tissue | Flux ([1]; EST 15 mg/ml, human breast skin, value (SEM)): 0.07 (0.01) μmole/cm^2/hour | Lag time ([2]; excised porcine mammary papilla, Franz diffusion cell, saturated solution in ethanol:water (50:50), 48 h, mean ± SEM, n=3): 7.07 ± 0.29 h | Cumulative % permeated [2, 7]: 1.03 ± 0.08% | Flux × 10^3 [2, 7]: 2.57 ± 0.15 μM · cm^2 · hr^−1 | Permeability coefficient × 10^3 [2, 7]: 0.05 ± 0.002 cm^2 · hr^−1 | cumulative amount permeated [2, 7]: 0.23 ± 0.02 µM | Cumulative % retained [2, 8]: 4.52 ± 0.59% | Drug extraction from 2 mm thick mammary papilla sections, Section A (tip) [2, 8]: 5.45 ± 0.49 µM/g | Drug extraction from 2 mm thick mammary papilla sections, Section B [2, 8]: 3.63 ± 0.26 µM/g | Drug extraction from 2 mm thick mammary papilla sections, Section C [2, 8]: 2.53 ± 0.31 µM/g | Drug extraction from 2 mm thick mammary papilla sections, Section D (base) [2, 8]: 1.55 ± 0.53 µM/g | Permeation across mammary papilla (in words) ([2]; porcine mammary papilla, treatment up to 48 hours): significant EST transport across the mammary papilla | Change of permeation upon removal of the keratin plugs (in words) ([3]; porcine mammary papilla, donor in 50:50 ethanol:water, 48 hours): increases significantly | lag time ([4]; EST 15 mg/ml in 50:50 ethanol:water, human mammary papilla with keratin plug removal): 2.08 (0.28) hours | cumulative amount permeated [4, 9]: 2.62 (0.97) μmole | Drug retention in tissue [4, 9]: 6.25 (2.12) umole/g of tissue | Flux [4, 9]: 0.09 (0.03) μmole/cm^2/hour | cumulative amount permeated [4, 10]: 0.58 (0.06) μmole | Drug retention in tissue [4, 10]: 1.06 (0.04) umole/g of tissue | Flux [4, 10]: 0.01 (0.00) μmole/cm^2/hour | lag time [4, 10]: 7.02 (0.94) hours | Permeation profile via human vs porcine mammary papillae ([4]; after keratin plug removal, 48 hours (Experiment 15)): similar | Increase in permeation across the tissues upon removal of the keratin plugs [4]: more than 10 fold | Log P [5]: 3.6

CCN(CC)c1ccc2nc3c4ccccc4c(=O)cc-3oc2c1 [NR, Nile Red]
Distribution of dye fluorescence in mammary papilla [6]: observed only in and around the ducts | Log P [5]: 3.8

CCN(CC)c1ccc2c(-c3ccc(S(=O)(=O)O)cc3S(=O)(=O)[O-])c3ccc(=[N+](CC)CC)cc-3oc2c1 [SRB, sulforhodamine B]
Distribution of dye fluorescence in mammary papilla [6]: distribution of the dye in both the ducts and in the surrounding tissue | Log P [5]: −0.74

dextran
Penetration via human breast skin (in words) ([1]; 48 hrs treatment): no penetration of dextran even with 48 hrs treatment | lag time ([1]; dextran 10 mg/ml in 1:1 ethanol:water, human breast skin, value (SEM)): 30.15 (3.04) hours | Increase in permeation upon removal of the keratin plugs ([3]; porcine mammary papilla, 10 mg/ml in 50:50 ethanol:water, 48 hours): approximately 2 folds | lag time ([4]; dextran 10 mg/ml in 50:50 ethanol:water, human mammary papilla with keratin plug removal): 9.63 (0.90) hours | cumulative amount permeated [4, 11]: 119.42 (19.35)* μmole | Drug retention in tissue [4, 11]: 789.33 (99.11)* umole/g of tissue | cumulative amount permeated [4, 12]: 16.54 (7.32)* μmole | Drug retention in tissue [4, 12]: 89.88 (19.26)* umole/g of tissue | lag time ([4]; dextran 10 mg/ml, human mammary papilla without keratin plug removal): 14.74 (1.41) hours | Increase in permeation across the tissues upon removal of the keratin plugs [4]: more than 7 fold

inulin
Transmammary flux ([3]; porcine mammary papilla): 0.33 μg/sq·cm/h | lag time ([3]; porcine mammary papilla after keratin plug removal, 10 mg/ml in 50:50 ethanol:water, n=4): 16.7 h and 16.78 h | Drug permeation (% of applied dose) [3, 13]: 0.37 % of applied dose | cumulative amt. permeated [3, 13]: 0.0037 µmol | Amount permeated across the tissue [3, 14]: 18.37 µg | Amount retaining into the tissue [3, 14]: 41.28 µg | Drug retention in tissue (% of applied dose) [3, 15]: 0.83 % of applied dose | Skin retention [3, 15]: 0.023 umole/g of tissue | Total drug retention in tissue [3, 15]: 0.0083 µmol | Flux ([3]; porcine mammary papilla after keratin plug removal, n=4): 0.000066 μmole/sq.cm/hr
